Columns and labels:
A498 cells = conditions: MTT assay
Procedure: (§1) Vitilevuamide prepared according to the procedure of Example 1 or Example 2 was tested against a panel of human tumor cell lines: (a) a colon cancer cell line, HCT 116 (obtained from ATCC), M. Brattain, 41 Cancer Res. 1751 (1986); (b) an adenocarcinoma cell line, A549, D. J. Giard, 51 J. Nat'l Cancer Inst. 1417 (1973); (c) a malignant melanoma cell line, SK-MEL-5, H. F Oteggen, 41 J. Nat'l Cancer Inst. 827 (1968); and (d) a kidney carcinoma cell line, A498, S. Aaronson, 51 J. Nat'l Cancer Inst. 1417 (1973). Cells were cultured according to the procedure of M. C. Alley et al., 48 Cancer Res. 589 (1988), hereby incorporated by reference.
(§2) Screening was performed in a 96-well microtiter plate by the standard 3-[4,5-dimethylthiazol-2-yl]-[…] bromide; thiazolyl blue (MTT) cell inhibition assay adopted for anticancer drug screening at NIH. J. Carmichael et al., 47 Cancer Res. 936 (1987), hereby incorporated by reference. Positive controls were run simultaneously.

A549 cells = conditions: MTT assay
Procedure: as §1, §2

HCT 116 cells = conditions: MTT assay
Procedure: as §1, §2

SK-MEL-5 cells = conditions: MTT assay
Procedure: as §1, §2

C6 rat glioma cells = assay: Tubulin inhibition assay (db-cAMP rounding, MTT readout); assay type: cell-based; conditions: 4 h treatment then 1 mM db-cAMP, colchicine 25 μg/mL positive control
Procedure: C6 rat glioma cells (ATCC CCL107) were seeded into the wells of a microtiter plate and then incubated for 1 day. The cells were then treated with a range of vitilevuamide concentrations, normally 5 orders of magnitude, and incubated for 4 additional hours. The cells were then treated for 1 hour with 1 mM dibuteryl-cAMP (db-cAMP), which causes the C6 cells to assume a spherical morphology ("rounding") within 60 minutes due to polymerization of tubulin. Cells that are exposed to tubulin-active compounds, on the other hand, display a different morphological change--flattening and adherence to the substrate. All of the wells were then jet aspirated, and the wells were resupplied with fresh medium containing MTT. The glioma cells metabolize MTT to a dark formazan dye. P. R. Twentyman & M. Luscombe, 56 Br. J. Cancer 279 (1987); F. Denizot & R. Lang, 89 J. Immunol. Methods 271 (1986). Following 4 hours of incubation, absorbance was measured at 450 nm. Colchicine (25 μg/mL) was used as the positive control.

P388 tumor cells = assay: In vivo P388 tumor life span test in CDF1 mice; conditions: days 1, 5, 9, CDF1 mice with P388
Procedure: Vitilevuamide was also screened for in vivo activity by injecting CDF1 mice intraperitoneally on day 0 with 1×10^6 P388 tumor cells. Five animals were randomly assigned to a group. On days 1, 5, and 9 after tumor implantation, these mice were treated intraperitoneally with either a placebo or the drug. Animals were checked twice daily, and the day of death of each mouse was recorded. A positive drug response is defined as a greater than 25% increase in the mean life span (% ILS) relative to the placebo control.

## C=C1NC(=O)[C@H]([C@@H](C)CC)NC(=O)C2CSCC(NC(=O)CCC(=O)O)C(=O)N[C@H](Cc3ccccc3)C(=O)N[C@H](C)C(=O)NC(CC(C)CC)C(=O)N[C@@H](C(=O)N[C@H](Cc3ccccc3)C(=O)N3CCC[C@H]3C(=O)N2)[C@@H](C)OC(=O)[C@H](CO)NC(=O)C(C(O)COC)N(C)C(=O)[C@@H](C(C)C)NC(=O)C(CC(C)CC)NC1=O (stereo partly drawn) [vitilevuamide]
A498 cells
  50% inhibitory concentration (IC50): 5 µg/mL
A549 cells
  50% inhibitory concentration (IC50): 0.2 µg/mL
HCT 116 cells
  50% inhibitory concentration (IC50): 0.01 µg/mL
SK-MEL-5 cells
  50% inhibitory concentration (IC50): 0.5 µg/mL
C6 rat glioma cells
  concentration showing the same effect as colchicine: 4 µg/mL
P388 tumor cells; 0.006 mg/kg/dose i.p.
  % ILS (increase in mean life span relative to placebo): 8%
P388 tumor cells; 0.012 mg/kg/dose i.p.
  % ILS (increase in mean life span relative to placebo): 20%
P388 tumor cells; 0.03 mg/kg/dose i.p.
  % ILS (increase in mean life span relative to placebo): 70%
P388 tumor cells; 0.06 mg/kg/dose i.p.
  % ILS (increase in mean life span relative to placebo): -13%
  toxicity remark at dose: toxic
P388 tumor cells; 0.13 mg/kg/dose i.p.
  % ILS (increase in mean life span relative to placebo): -45%
  toxicity remark at dose: toxic

From US5830996A, “Cyclic peptide antitumor agent from an ascidian” (University of Utah Research Foundation, priority 1996, dated 1998)
